Converted amounts (≈) assume the structure as drawn. Like-named read-outs stand apart in the source and are kept apart here.
Tests used:
Two-Spotted Spider Mite = assay: Biological Method D: Foliar Insecticidal Activity Test, mite test; assay type: in vivo, Tetranychus urticae; set-up: key to LC50 TSM: I = inactive at concentration listed; conditions: for TSM LC50: foliar spray, kill after twenty-four hours; for LC50 TSM: Method D foliar test, Two-Spotted Spider Mite
Protocol: (§1) Biological Method D: Foliar Insecticidal Activity Test
(§2) In evaluating the foliar insecticidal activity of the compounds of this invention against insects and mites, the following test procedures were employed.
(§3) Not all compounds were tested at each of the several concentrations stated above. Test concentrations of a compound were selected as those most likely to differentiate dose response of a particular compound toward a particular test insect.
(§4) Initial evaluations were made on one or more of the following pests:
For the mite test, infested bean (Phaseolus limensis var. Woods Prolific) leaf discs [3.18 cm (1.25") in diameter] containing about 50 mites were placed in a Petri dish lid on a moistened piece of cotton. The leaves were then sprayed to thorough wetness with the test solution using a rotating turntable, held for twenty-four hours and then the percentage killed was determined.
(§5) The mortalities obtained in this manner were plotted on logarithmic probability paper.
(§6) The rotating turntable consists of a fixed, continuously operating spray nozzle under which targets are rotated at a fixed speed and distance. If the target is a Petri dish (such as for the bean beetle, armyworm, mite, or aphid tests), the distance from the nozzle is 38.1 cm (15 inches). If the target is a Mason jar (such as for the boll weevil test), the distance from the nozzle is 17.8 cm (7 inches). The nozzle is located 8 inches from the rotating shaft. The targets on individual platforms revolve around the shaft at 1 revolution per 20 seconds but only a brief portion of this time occurs in the spray path. Targets pass only once under the nozzle and then are removed to drying hoods.
(§7) The nozzle used is a 1/4 JCO Spraying Systems (Wheaton, Illinois) air atomizing nozzle equipped with a No. 2850 fluid cap and a No. 70 air cap. At the 68.95 x 10³ Pa gauge (10 psig) air pressure used and with liquid siphon feed, 1.89 ℓ/hr [0.5 GPH (gallons per hour)] are delivered in a round spray pattern with a 21 degree spray angle. Targets are misted with spray droplets to the point that the droplets coalesce to form a uniform thin film insufficient to drown test organisms.

Green Peach Aphid [1] = assay: Biological Method D: Foliar Insecticidal Activity Test, aphid test; assay type: in vivo, Myzus persicae; conditions: foliar spray; kill after twenty-four hours
Protocol: as §1, §2, §3, §4
(§8) For the aphid test, infested broccoli (Brassica oleracea italica var. DiCicco) leaves containing about 50 aphids were placed in a Petri dish lid on a moistened piece of cotton. The leaves were then sprayed to thorough wetness with the test solution using a rotating turntable, held for twenty-four hours and then the percentage killed was determined.
as §5, §6, §7

Mexican Bean Beetle = assay: Biological Method D: Foliar Insecticidal Activity Test, Mexican Bean Beetle test; assay type: in vivo, Epilachna varivestis; set-up: key to LC50 BB 96 hrs / LC50 BB 48 hrs.: I = inactive at concentration listed; conditions: for LC50: Epilachna varivestis
Protocol: as §1, §2, §3, §4
(§9) For the Mexican Bean Beetle and Southern armyworm tests, individual lima bean (Phaseolus limeniss var. Woods' Prolific) leaves were placed on moistened pieces of filter paper in Petri dishes. The leaves were then sprayed with the test solution using a rotating turntable and allowed to dry. The dishes were then infested with 10 third instar larvae of either the Mexican Been Beetle or the Southern Armyworm. The dishes were then covered. Percent mortality was determined for each species and spray concentration at 48 and 96 hours after treatment.
as §5, §6, §7

Southern Armyworm [2] = assay: Biological Method D: Foliar Insecticidal Activity Test, Southern Armyworm test; assay type: in vivo, Spodoptera eridania; conditions: for AW 48 hrs LC50 / AW 96 hrs LC50: foliar spray; for AW 48 hrs LC50: 48 hours after treatment; for AW 96 hrs LC50: 96 hours after treatment; for LC50: Spodoptera eridania, Method D foliar test, Southern Armyworm
Protocol: as §1, §2, §3, §4, §9, §5, §6, §7

Boll Weevil [3] = assay: Biological Method D: Foliar Insecticidal Activity Test, boll weevil test; assay type: in vivo, Anthonomous grandis; conditions: for BW 48 hrs LC50 / BW 96 hrs LC50: spray into jar
Protocol: as §1, §2, §3, §4
(§10) For the boll weevil test, 10 adult weevils were placed in a 0.24 ℓ (0.5 pint) glass Mason jar containing a small cube of apple. The weevils were confined to the jar by fiberglass screen mesh secured by a screw-type rim cap. The jars were then sprayed with the test solution using a rotating turntable; directing the spray through the mesh into the jar. The percentage killed was determined after forty-eight and ninety six hours.
as §5, §6, §7

[4] = system: southern corn rootworm, Diabrotica undecimpunctata howardi; assay: Biological Method A: Corn Rootworm Screening Test (treated non-aggressive soil); conditions: soil concentration giving 90% mortality, 10 days at 27°C
Green Peach Aphid [5] = assay: Biological Method D: Foliar Insecticidal Activity Test, aphid test; assay type: in vivo, Myzus persicae; set-up: key: I = inactive at concentration listed
Protocol: as §1, §2, §3, §4, §8, §5, §6, §7

Southern Armyworm [6] = assay: Biological Method D: Foliar Insecticidal Activity Test, Southern Armyworm test; assay type: in vivo, Spodoptera eridania; set-up: key: I = inactive at concentration listed
Protocol: as §1, §2, §3, §4, §9, §5, §6, §7

Boll Weevil [7] = assay: Biological Method D: Foliar Insecticidal Activity Test, boll weevil test; assay type: in vivo, Anthonomous grandis; set-up: key: I = inactive at concentration listed
Protocol: as §1, §2, §3, §4, §10, §5, §6, §7

[8] = system: southern corn rootworm, Diabrotica undecimpunctata howardi; conditions: at-planting soil application
[9] = foliar spray, 48 hours after treatment, read-out: BB 48 hrs. LC50
[10] = foliar spray, 96 hours after treatment, read-out: BB 96 hrs LC50
[11] = Method D foliar test, Mexican Bean Beetle, 48 hrs
[12] = Method D foliar test, Mexican Bean Beetle, 96 hrs
[13] = 96 hrs, read-out: LC50 AW 96 hrs
[14] = Method D foliar test, Boll Weevil
[15] = 48 hrs, read-out: LC50 AW 48 hrs
[16] = Method D foliar test, Mexican Bean Beetle, 96 hrs, read-out: LC50 BB 96 hrs
[17] = Method D foliar test, Mexican Bean Beetle, 48 hrs, read-out: LC50 BB 48 hrs.

Compound | TSM LC50 (Two-Spotted Spider Mite) | GPA LC50 (Green Peach Aphid [1]) | LC50 (Mexican Bean Beetle; [9]) [µg/mL] | LC50 (Mexican Bean Beetle; [10]) [µg/mL] | AW 48 hrs LC50 (Southern Armyworm [2]) | AW 96 hrs LC50 (Southern Armyworm [2]) | BW 48 hrs LC50 (Boll Weevil [3]) | BW 96 hrs LC50 (Boll Weevil [3]) | primary nonagressive Method A crw LC90 [4] [ppm] | LC50 TSM (Two-Spotted Spider Mite) | LC50 BB 48 hrs. (Mexican Bean Beetle; [11]) | LC50 GPA (Green Peach Aphid [5]) | LC50 AW 48 hrs (Southern Armyworm [6]) | LC50 BW 48 hrs (Boll Weevil [7]) | secondary aggressive Method C crw LC50 ([8]; rated 17 days post-infestation) [kg/ha] | secondary aggressive Method C crw LC50 ([8]; value in brackets) [lb/acre] | further results
CCCOP(=S)(NNP(=S)(NCC(C)C)OCC)OCCC (stereo not shown) [Compound 81] | I | I | 500 (≈ 1280 µM) | 740 (≈ 1890 µM) | I | I | I | I | 1.1 | – | – | – | – | – | – | – | –
CCOP(=S)(NNP(=S)(OCC(C)(C)C)OCC(C)(C)C)OCC(C)(C)C (stereo not shown) [Compound 57, N-(O,O-dineopentylthiophosphoryl) N′-(O-ethyl O-neopentylthiophosphoryl) hydrazine] | – | – | – | – | – | – | – | – | 1.1 | I | I | I | I | I | 0.5 | 0.45 | LC50 BB 96 hrs (Mexican Bean Beetle; [12]): I; LC50 AW 96 hrs (Southern Armyworm [6]): I; LC50 BW 96 hrs (Boll Weevil [7]): I
CCCCCOP(=S)(NNP(=S)(OCCC)OCCC)OCC (stereo not shown) [Compound 79] | I | I | 380 (≈ 935 µM) | 62 (≈ 153 µM) | I | I | I | I | 1.1 | – | – | – | – | – | – | – | –
CCOP(=S)(NNP(=S)(OC)OC)OCC(C)(C)C (stereo not shown) [Compound 44] | – | – | – | – | – | – | – | – | 0.37 | I | I | I | I | – | 0.56 | 0.50 | LC50 BB 96 hrs (Mexican Bean Beetle; [12]): I; LC50 (Southern Armyworm [2]; [13]): 500 µg/mL (≈ 1430 µM); LC50 BW 48 hrs (Boll Weevil [3]; Method D foliar test, Boll Weevil, 48 hrs): 380 ppm; LC50 BW 96 hrs (Boll Weevil [3]; [14]): 380 ppm
CCOP(=S)(NNP(=S)(OC(C)C)OC(C)C)OCC(C)C (stereo not shown) [Compound 83] | I | I | 500 (≈ 1270 µM) | 62 (≈ 158 µM) | I | – | – | – | – | – | – | – | – | – | – | – | –
CCOP(=S)(NCC(C)C)NNP(=S)(OCC)OCC (stereo not shown) [Compound 71] | I | I | 150 (≈ 413 µM) | 150 (≈ 413 µM) | I | I | I | I | 1.1 | – | – | – | – | – | – | – | –
CCOP(=S)(NNP(=S)(OCC)OC(C)(C(F)(F)F)C(F)(F)F)OCC(C)(C)C (stereo not shown) [Compound 48] | – | – | – | – | – | – | – | – | 0.40 | I | I | I | – | I | 0.63 | 0.56 | LC50 BB 96 hrs (Mexican Bean Beetle; [12]): I; LC50 (Southern Armyworm [2]; [15]): 300 µg/mL (≈ 583 µM); LC50 (Southern Armyworm [2]; [13]): 150 µg/mL (≈ 292 µM); LC50 BW 96 hrs (Boll Weevil [7]): I
CCCCCOP(=S)(NNP(=S)(OCC)OCC)OCC (stereo not shown) [Compound 63] | I | I | – | 740 (≈ 1960 µM) | I | I | I | 740 ppm | 1.1 | – | – | – | – | – | – | – | –
CCCOP(=S)(NNP(=S)(OCC)N1CCCCC1)OCCC (stereo not shown) [Compound 64] | I | I | 740 (≈ 1830 µM) | 740 (≈ 1830 µM) | I | I | I | I | 8.6 | – | – | – | – | – | – | – | –
CCCCCCOP(=S)(NNP(=S)(OCCC)OCCC)OCC (stereo not shown) [Compound 80] | I | I | – | – | I | I | I | I | 1.1 | – | – | – | – | – | – | – | –
CCCOP(=S)(NNP(=S)(OCC)OCC)OCC(C)(C)C (stereo not shown) [Compound 34] | – | – | – | – | – | – | – | – | 1.1 | I | I | I | I | I | 0.65 | 0.58 | LC50 (Mexican Bean Beetle; [16]): 52 µg/mL (≈ 132 µM); LC50 AW 96 hrs (Southern Armyworm [6]): I; LC50 BW 96 hrs (Boll Weevil [7]): I
CCCOP(=S)(NNP(=S)(OCC)OC(C)(C(F)(F)F)C(F)(F)F)OCC (stereo not shown) [Compound 70] | I | I | 500 (≈ 1030 µM) | 45 (≈ 92.5 µM) | I | I | I | I | 1.1 | – | – | – | – | – | – | – | –
CCCOP(=S)(NNP(=O)(OCC)SC(C)CC)OCC (stereo not shown) [Compound 54] | – | – | – | – | – | – | – | – | 1.1 | I | I | I | – | I | – | – | LC50 BB 96 hrs (Mexican Bean Beetle; [12]): I; LC50 (Southern Armyworm [2]; [15]): 52 µg/mL (≈ 137 µM); LC50 AW 96 hrs (Southern Armyworm [6]): I
CCCOP(=S)(NNP(=S)(OCCC)OCCC)OCC (stereo not shown) [Compound 28] | – | – | – | – | – | – | – | – | 1.1 | I | – | I | I | I | 1.06 | 0.95 | LC50 (Mexican Bean Beetle; [17]): 62 µg/mL (≈ 164 µM); LC50 (Mexican Bean Beetle; [16]): 50 µg/mL (≈ 132 µM); LC50 AW 96 hrs (Southern Armyworm [6]): I; LC50 BW 96 hrs (Boll Weevil [7]): I
CCCCCCCCOP(=S)(NNP(=S)(OCC)OCC)OCC (stereo not shown) [Compound 72] | I | I | – | – | I | I | I | I | 1.1 | – | – | – | – | – | – | – | –
CCCOP(=S)(NNP(=S)(OCC)OCC(C)(C)C)OCC (stereo not shown) [Compound 45, N-(O-ethyl O-propylthiophosphoryl) N′-(O-ethyl O-neopentylthiophosphoryl) hydrazine] | – | – | – | – | – | – | – | – | 0.39 | I | I | I | I | I | 0.37 | 0.33 | LC50 BB 96 hrs (Mexican Bean Beetle; [12]): I; LC50 (Southern Armyworm [2]; [13]): 150 µg/mL (≈ 382 µM); LC50 BW 96 hrs (Boll Weevil [3]; [14]): 150 ppm
CCOP(=O)(NNP(=S)(OCC)OCC(C)(C)C)SC(C)CC (stereo not shown) [Compound 52] | – | – | – | – | – | – | – | – | 1.1 | I | – | I | I | I | 0.78 | 0.70 | LC50 (Mexican Bean Beetle; [17]): 500 µg/mL (≈ 1230 µM); LC50 (Mexican Bean Beetle; [16]): 150 µg/mL (≈ 369 µM); LC50 AW 96 hrs (Southern Armyworm [6]): I; LC50 BW 96 hrs (Boll Weevil [7]): I
